# Literature values as cited in patent publication US20060030547A1, “Antineoplastic combinations” (Wyeth, priority 2001, published 2006).
# Columns and labels:
# [1] = system: histologically diverse tumor cells; conditions: in vitro, background statement
# orthotopic glioma = conditions: nude mice, background statement
# [2] = system: human glioblastoma cell line; conditions: in vitro, background statement
compound,measurement,setting,value
"CO[C@H]1C[C@@H]2CC[C@@H](C)[C@@](O)(O2)C(=O)C(=O)N2CCCC[C@H]2C(=O)O[C@H]([C@H](C)C[C@@H]2CC[C@@H](OC(=O)C(C)(CO)CO)[C@H](OC)C2)CC(=O)[C@H](C)/C=C(\C)[C@@H](O)[C@@H](OC)C(=O)[C@H](C)C[C@H](C)/C=C/C=C/C=C/1C [CCI-779, Rapamycin 42-ester with 3-hydroxy-2-(hydroxymethyl)-2-methylpropionic acid]",cell cycle effect,[1],arrested cells in the G1 phase of the cell cycle
same,activity in orthotopic glioma model,orthotopic glioma,active
same,suppression of growth factor (platelet-derived)-induced stimulation,[2],markedly suppressed
